Values quoted from earlier work in US20170058346A1, “Methods Employing Non-Coding RNA Expression Assays” (SISTEMIC SCOTLAND LIMITED, priority 2009, published 2017).

System: HDAC
Settings: from a literature review

In the case of C[S+](C)[O-] [DMSO, dimethyl sulphoxide], the HDAC inhibitor activity is given as “shown to be an HDAC inhibitor”.
